# Entries after “also recorded” stand apart in the source; their conditions may differ.
# Key:
# [1] = tested on: hippocampal neurogenesis in the DG; assay: Comparison of P7C3 compounds and antidepressant drugs: DG BrdU labeling after i.c.v. infusion; format: in vivo, mouse; details: 10 μM i.c.v. for 7 days
# From the text: The neuroprotective efficacies of both P7C3 and P7C3-A20 were next compared to currently marketed antidepressant medications, using screening conditions identical to those by which P7C3 was originally discovered. This experiment was based on the antidepressant actions of P7C3 and P7C3-A20 characterized here, and the dependence on hippocampal neurogenesis for behavioral efficacy of some marketed antidepressant medications in mice.
# Proneurogenic efficacies in the DG of P7C3 and P7C3A20 were compared to those of vehicle (artificial cerebrospinal fluid) and several marketed antidepressant compounds (Sigma-Aldrich, St. Louis, Mo.) according to established methods. In brief, mice were housed individually in cages without running wheels or any form of environmental enrichment, in order to create an environment predicted to have as low of a baseline level of hippocampal neurogenesis as possible. Compounds (10 μM, i.c.v.) were administered for 7 days via subcutaneously implanted Alzet osmotic minipumps connected to a cannula directed into the left lateral ventricle, with implantation day designated as day 0. Starting on day 1, mice also received daily injections of BrdU (50 mg/kg, i.p.) at 9 am daily, for 6 days. Twenty four hours after the sixth BrdU injection, mice were transcardially perfused as described above.
# [2] = tested on: neural precursor cells in the subgranular zone of the dentate gyrus; assay: In vivo pro-neurogenic efficacy/neuroprotection assay: intracerebroventricular infusion, BrdU incorporation in the dentate gyrus; design: species or system mouse (C57/Bl6); details: direct administration into the brain via Alzet minipumps for one week, 10 μM unless stated
# Method: Compounds were evaluated for pro-neurogenic efficacy/neuroprotection in our standard in vivo assay at 10 μM concentration in four 12 week old adult male C57/Bl6 mice.
# In an effort to identify compounds that might stimulate the birth of new neurons, or protect newborn neurons from cell death, a library of 1,000 compounds was screened using an in vivo assay. In the initial screen, compounds were randomly pooled into groups often and administered intracerebroventricularly at a constant rate over seven days into the left lateral ventricle of living mice via Alzet osmotic mini-pumps. Compounds were administered at a concentration of 10 μM for each molecule, making a total solute concentration of 100 μM. After seven days of infusion at a constant rate of 0.5 μL/hour, a total of 84 μL of volume will have left the pump (0.00084 μMoles) and entered the cerebrospinal fluid. The average volume of a brain from a 12 week old male, C57/B6 mouse in our study is 500 mm^3. […] Under these conditions, at the end of one week of infusion each compound would be present at 1.7 μMolar concentration. Since the actual amount of chemical compound in the brain is likely to be only a fraction of this predicted level, it is reasonable to estimate that compounds were administered at mid to low-nanomolar concentrations.
# During compound infusion, animals were intraperitoneally (IP) injected daily with the thymidine analog, bromodeoxyuridine (BrdU), as a means of scoring the birth and survival of proliferating neural precursor cells in the hippocampus. Because both social interaction and voluntary exercise are known to stimulate hippocampal neurogenesis, mice were housed individually without access to running wheels throughout the screening period. Following the week-long period of compound administration, animals were perfused and sacrificed. Dissected brain tissue was fixed, embedded, sectioned, stained with antibodies to BrdU, and evaluated by light microcopy as a means of quantifying neurogenesis and survival of newborn neural precursor cells localized to the subgranular layer of the dentate gyrus on the brain hemisphere contralateral to the side of mini-pump cannulation. Every fifth section throughout the entire rostral-caudal extent of the hippocampus was analyzed, and the total number of BrdU+ cells was normalized against the measured volume of the dentate gyrus. Because both increased proliferation and survival of newborn neurons are important screening parameters, the screen was conducted over seven days in order to cast a wide net to detect molecules that might augment either process. […] Intracranial infusions of either fibroblast growth factor 2 (FGF-2) or artificial cerebral spinal fluid (aCSF) vehicle via the same, week-long protocol were employed as positive and negative controls. There was no difference in the number of BrdU-labeled cells in the dentate gyrus between mice subjected to surgical pump implantation and infusion with vehicle, and mice having had no surgery (FIG. 2). This confirmed the validity of the in vivo approach to assess the ability of intracerebroventricularly infused compounds to enhance hippocampal neurogenesis in the contralateral hemisphere.
# In order to further study Example 45 Compound, an in vivo structure activity relationship (SAR) study was conducted using 37 chemical derivatives of the compound for pro-neurogenic activity via direct administration into the brain of adult mice via Alzet minipumps. Compounds were administered for one week at 10 uM into 4 mice per compound, along with daily IP injections of BrdU. Following compound administration, animals were perfused, sacrificed and subjected to sectioning, staining and light microscopy in order to monitor hippocampal neurogenesis localized to the subgranular layer of the dentate gyrus. Roughly 10% of the variant compounds retained pro-neurogenic activity indistinguishable from the parent compound. […]
# SNc dopaminergic neurons = assay: MPTP-toxicity to SNc dopaminergic neurons, treatment started 24 hours after the last MPTP dose; format: in vivo, mouse (C57Bl/6); details: new analogs, 10 mice for each compound
# Method: FIG. 29A and FIG. 29B. Neuroprotective efficacy of P7C3 and P7C3A20 from MPTP-toxicity to SNc dopaminergic neurons. FIG. 29A—Test compounds were evaluated by dose response assay for their ability to block MPTP-neurotoxicity in the SNc. […] VEH group contained 30 animals: 15 animals that received the P7C3A20/P7C3 vehicle, and 15 animals that received Dimebon vehicle (saline). […] Representative immunohistochemical pictures of TH-staining in the SNc are shown below the graph. Dosing is expressed as total mg/day, and was administered intraperitoneally in divided doses twice daily. Data are expressed as mean±SEM. […] P7C3A20 does so with greater effect, and Dimebon offers no protection. Striatal sections were obtained from the same mice used in FIG. 2, and compound treatment groups are from mice that received a dose of 20 mg/kg/d.
# We compared the protective efficacy of our agents in the Tatton and Kish model of MPTP administration, which induces prolonged apoptotic death of SNc dopaminergic neurons lasting about 3 weeks after a short course of daily MPTP administration. Mice were treated daily for 5 days with 30 mg/kg/day free base MPTP. On the sixth day, 24 hours after receiving the fifth and final dose of MPTP, daily treatment with P7C3, P7C3A20, Dimebon or vehicle was initiated. […] Dose-response studies were conducted in which mice received twice daily doses of each compound (or vehicle) for the ensuing 21 days (FIG. 29A). […] At the end of the 21 day treatment period, mice were sacrificed by transcardial perfusion with 4% paraformaldehyde, and fixed brains were sectioned through the striatum and SNc at 30 μM intervals. Every fourth section (spaced 120 μM apart) was stained with antibodies specific to tyrosine hydroxylase (TH) (Abcam, rabbit anti-TH, 1:2500). The TH enzyme catalyzes the conversion of the amino acid L-tyrosine to L-3,4-dihydroxyphenylalanine (L-DOPA), which serves as the precursor for dopamine. TH staining thus provides a means to immunohistochemically identify dopaminergic neurons. By counting the number of TH+ cells in the SNc, we were able to assess the neuroprotective efficacy of the three chemicals following MPTP exposure. All microscopic analysis was performed by two investigators, blind to treatment group.
# 15 adult male C57Bl/6 mice were individually housed for one week and then injected daily for 5 days with 30 mg/kg/day (i.p.) free base MPTP (Sigma). On day 6, 24 hours after receiving the fifth and final dose of MPTP, daily treatment with P7C3, P7C3A20, Dimebon or vehicle was initiated. Mice were housed in disposable caging, and protective gear and precautions were implemented for handling MPTP in accordance with UT Southwestern Medical Center policy. Dose response studies were conducted in which mice received twice daily doses of each compound (or vehicle) by intraperitoneal injection for the following 21 days, after which mice were sacrificed by transcardial perfusion with 4% paraformaldehyde. Brains were dissected, fixed overnight in 4% paraformaldehyde, and cryoprotected in sucrose for freezing by standard procedures. Frozen brains were sectioned through the striatum and SNc at 30 uM intervals, and every fourth section (spaced 120 μM apart) was stained with antibodies directed against tyrosine hydroxylase (TH) (Abcam, rabbit anti-TH, 1:2500). Diaminobenzidine was used as a chromagen, and tissue was counter-stained with hematoxylin to aid in visualization of the neuroanatomy. Images were analyzed with a Nikon Eclipse 90i motorized research microscope with Plan Apo lenses coupled with Metamorph Image Acquisition software (Nikon). TH+ neurons were counted with Image J software (NIH) in every section by 2 blinded investigators and results were averaged and multiplied by the sectioning interval to determine the total number of TH+ neurons per SNc.
SMILES,increase of DG neurogenesis (BrdU labeling) over vehicle [1],pro-neurogenic activity in the in vivo hippocampal neurogenesis assay [2],activity in the MPTP protection assay (SNc dopaminergic neurons),further results
N[C@@H]1C[C@H]1c1ccccc1 (racemic) [tranylcypromine],did not affect the magnitude of neurogenesis,,,
"COc1cccc(NCC(F)Cn2c3ccc(Br)cc3c3cc(Br)ccc32)c1 (single isomer, unassigned) [Example 144a, N-(3-(3,6-dibromo-9H-carbazol-9-yl)-2-fluoropropyl)-3-methoxyaniline]",,more active than P7C3-S114,,
"COc1cccc(NCC(O)Cn2c3ccc(Br)cc3c3cc(Br)ccc32)c1 (single isomer, unassigned; (+)) [(+) (dextrorotatory) enantiomer of 1-(3,6-Dibromo-9H-carbazo]",,higher activity,,
"COc1cccc(NCC(O)Cn2c3ccc(Br)cc3c3cc(Br)ccc32)c1 (single isomer, unassigned; (-)) [(−) (levorotatory) enantiomer of 1-(3,6-Dibromo-9H-carbazol-]",,lower activity,,
"COc1cccc(NCC(O)Cn2c3ccc(Br)cc3c3cc(Br)ccc32)c1 (single isomer, unassigned; (-)) [(−) enantiomer of Example 62 Compound, 1-(3,6-Dibromo-9H-carbazol-9-yl)-3-(3-methoxyphenylamino)-propan-2-ol]",,displayed diminished activity,,
"COc1cccc(NCC(O)Cn2c3ccc(Br)cc3c3cc(Br)ccc32)c1 (stereo not shown) [Example 62 Compound, 1-(3,6-Dibromo-9H-carbazol-9-yl)-3-(3-methoxyphenylamino)-propan-2-ol]",,activity comparable to Example 45 Compound; also recorded: retained robust activity,,
OC(CSc1ccccc1)Cn1c2ccc(Br)cc2c2cc(Br)ccc21 (stereo not shown) [Example P7C3-S7],,active in both,active in both,activity in the MPTP protection assay (SNc dopaminergic neurons; listed as P7C3S7): potency equal to or greater than P7C3 in both in vivo assays; pro-neurogenic activity in the in vivo hippocampal neurogenesis assay ([2]; listed as P7C3S7): potency equal to or greater than P7C3 in both in vivo assays
OC(CNc1ncccn1)Cn1c2ccc(Br)cc2c2cc(Br)ccc21 (stereo not shown) [Example P7C3-S8],,devoid of activity in both assays,devoid of activity in both assays,
Cc1cc(C)n(CC(O)Cn2c3ccc(Br)cc3c3cc(Br)ccc32)n1 (stereo not shown) [Example P7C3-S25],,active in both,active in both,
COc1cccc(NCC(C)(O)Cn2c3ccc(Br)cc3c3cc(Br)ccc32)c1 (stereo not shown) [Example P7C3-S54],,retain neuroprotective activity in both assays,retain neuroprotective activity in both assays,
O=C(O)Cn1c2ccc(Br)cc2c2cc(Br)ccc21 [Example P7C3-S165],,neuroprotection was observed in both assays,neuroprotection was observed in both assays,
OC(COc1ccccc1)Cn1c2ccc(Br)cc2c2cc(Br)ccc21 (stereo not shown) [Example P7C3S40],,neuroprotective activity in both assays resides exclusively in the S enantiomer,neuroprotective activity in both assays resides exclusively in the S enantiomer,
O[C@H](COc1ccccc1)Cn1c2ccc(Br)cc2c2cc(Br)ccc21 [Example P7C3S41],,neuroprotective activity in both assays resides exclusively in the S enantiomer; also recorded: potency equal to or greater than P7C3 in both in vivo assays,neuroprotective activity in both assays resides exclusively in the S enantiomer; also recorded: potency equal to or greater than P7C3 in both in vivo assays,
CC(NC(C)(C)C)C(=O)c1cccc(Cl)c1 (stereo not shown) [bupropion],about 49%,,,
CN(C)CCCN1c2ccccc2CCc2ccc(Cl)cc21 [clomipramine],~75%,,,
CNCCC(Oc1ccc(C(F)(F)F)cc1)c1ccccc1 (stereo not shown) [fluoxetine],did not affect the magnitude of neurogenesis,,,
CN(C)CCCN1c2ccccc2CCc2ccccc21 [imipramine],did not affect the magnitude of neurogenesis,,,
CN1CCN2c3ncccc3Cc3ccccc3C2C1 (stereo not shown) [mirtazapine],did not affect the magnitude of neurogenesis,,,
"CNCCC=C1c2ccccc2CCc2ccccc21 [nortriptyline, nortrypline]",did not affect the magnitude of neurogenesis,,,

# Source: patent publication US10183011B2, “Anti-depression compounds” (Board of Regents of the University of Texas System, priority 2009, dated 2019)
